Experimental findings from ChEMBL document CHEMBL1141439, “An antiproliferative bis-prenylated quinone from the New Zealand brown alga Perithalia capillaris” (J Nat Prod, 2007) are described below.

One assay concerns Neutrophil. Put plainly: Inhibition of superoxide production in human neutrophils. The class given is functional, cell-based.
In another assay the test system is HL-60. Briefly: Antiproliferative activity against human HL60 cells. The format is functional, cell-based.

Structures are written as SMILES.

`C=CC(C)(C)c1cc2c(cc1O)C=CC(C)(C)O2`: the IC50 – broadly, the concentration that inhibits the measured activity by half – with Neutrophil came out at 238 µM; in the assay with HL-60 it was 5.6 µM.
Taken in the same sequence, the figures for `C=CC(C)(C)c1ccc(O)c(CC=C(C)C)c1` were 29 µM and 2.7 µM.
The like results for `C=CC(C)(C)C1=CC(=O)C(CC=C(C)C)=CC1=O` were, in that order, 2.1 µM and 0.34 µM.
The like results for `O=C1C2=C(C=CC(C(=O)O)N2)C(=O)C2=C1NCCS2(=O)=O` (stereo not drawn) were, in that order, 1.5 µM and 73 µM.
